One experiment relates to Intact anesthetized dogs. The experiment is described as follows: Intact anesthetized dogs: infusion into one femoral artery, femoral blood flow and aortic blood pressure measured. Type of experiment: in vivo, dog. The following applies: for hypotensive effect compared with the porcine peptide: dogs, comparison with porcine vasoactive intestinal peptide. From the text: 1. Intact anesthetized dogs
The peptide was infused into one femoral artery, and the blood flow in that artery, as well as the aortic blood pressure, were continually measured. During the infusion of the peptide, blood pressure fell and blood flow increased, indicating peripheral vasodilation.

For a further experiment, the system named is rat stomach. The experiment can be described thus: Isolated smooth-muscle organ strips superfused in series: rat stomach. The following applies: rat stomach strip superfused with Krebs solution; often initial brief contraction followed by relaxation. From the text: (§1) 2. Isolated smooth-muscle organs
(§2) Four strips of smooth-muscle organs: rat stomach, guinea pig trachea, rat colon, and guinea pig gallbladder, were placed in series and superfused with warm physiological solution (Krebs), bubbled with 95% O2 and 5% CO2. The organ strips were attached to special transducers which measured their contraction or relaxation.

The test system of the next experiment is guinea pig trachea. The experiment can be described thus: Isolated smooth-muscle organ strips superfused in series: guinea pig trachea.
Description: as §1, §2

A further experiment concerns rat colon. The experiment can be described thus: Isolated smooth-muscle organ strips superfused in series: rat colon. To be noted: rat colon strip superfused with Krebs solution.
Description: as §1, §2

Another experiment concerns guinea pig gallbladder. The experiment can be described thus: Isolated smooth-muscle organ strips superfused in series: guinea pig gallbladder. To be noted: guinea pig gallbladder strip superfused with Krebs solution.
Description: as §1, §2

Ends that are not written are not given here.

“HSDAVFTDNYSRFRKQMAVKKYLNSVLT-NH2 [chicken peptide]”: the “aortic blood pressure during infusion” value in the experiment on Intact anesthetized dogs (anesthetized dogs, infusion into femoral artery) was “fell”. In addition, the “blood flow in femoral artery during infusion” value in the experiment on Intact anesthetized dogs (anesthetized dogs, infusion into femoral artery, indicates peripheral vasodilation) is “increased”. For the same substance, the “hypotensive effect compared with the porcine peptide” value with Intact anesthetized dogs was “less marked and shorter lasting”; in the experiment with Intact anesthetized dogs (listed as peptide), “relatively short duration”. For the same substance, in the experiment with rat stomach, the “effect on stomach strip” value is listed as “relaxation”. The “relaxation of trachea compared with porcine peptide” value in the experiment on guinea pig trachea (doses eliciting equal relaxation of stomach, chicken vs porcine peptide) is on record as “many times greater”. The “effect on trachea strip” value with guinea pig trachea (guinea pig trachea strip superfused with Krebs solution) is recorded as “relaxation”. For the same substance, the “relaxant potency on guinea pig trachea relative to other smooth muscles tested” value in the experiment with guinea pig trachea (in comparison with porcine vasoactive intestinal peptide) is given as “relatively more potent relaxant”. For the same substance, the “effect on colon strip” value with rat colon is given as “usually contracted”. In the experiment with guinea pig gallbladder, the “effects on gallbladder strip” value is “variable”.

These data come from patent US4016258A, “Vasoactive intestinal peptide from fowl” (priority 1975, dated 1977).
